From patent US20050159362A1, “Mediators of reverse cholesterol transport for the treatment of hypercholesterolemia” (priority 2003, published 2005)
Square brackets hold non-standard residues; d marks the D form. Ends that are not written are not given here. Bip = N[C@@H](Cc1ccc(-c2ccccc2)cc1)C(=O)O

Tests used:
PLTP = target: T1, PLTP (Mus musculus, UniProt P55065); test: Effect of peptides on PLTP activity; type: biochemical; settings: mouse plasma incubated with 0.4, 2, 5 and 10 ug peptide at RT for 30 min
T1 construct: Mouse plasma (source of enzyme), obtained from Chow fed mice and from mice fed with high fat cholate containing diet; from tissue; host or cells: serum/plasma of C57BL/6J male mice (chow-fed or high fat cholate diet for 4 days)
T1 sequence (P55065 18-493): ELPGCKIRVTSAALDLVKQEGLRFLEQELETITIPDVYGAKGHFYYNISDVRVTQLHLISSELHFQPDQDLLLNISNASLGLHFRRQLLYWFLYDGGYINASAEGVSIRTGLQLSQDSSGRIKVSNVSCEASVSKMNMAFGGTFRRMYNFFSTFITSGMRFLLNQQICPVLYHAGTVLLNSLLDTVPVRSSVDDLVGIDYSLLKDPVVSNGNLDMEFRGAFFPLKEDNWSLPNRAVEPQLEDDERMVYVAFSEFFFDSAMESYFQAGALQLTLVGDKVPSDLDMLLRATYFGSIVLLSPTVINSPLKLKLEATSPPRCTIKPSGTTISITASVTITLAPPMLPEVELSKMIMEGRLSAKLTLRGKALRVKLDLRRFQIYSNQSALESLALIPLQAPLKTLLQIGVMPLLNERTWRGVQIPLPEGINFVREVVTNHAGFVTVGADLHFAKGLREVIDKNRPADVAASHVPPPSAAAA
Experimental: Effect of peptides on PLTP activity—PLTP activity was measured using a fluorescent kit (Cardiovascular Targets, Inc., P7700). PLTP source was serum obtained from C57BL/6J male 2 months old mice, which were Chow-fed or maintained on high fat cholate containing diet for four days. 1× Mouse serum was preincubated with PBS or 0.4, 2, 5, and 10 μg of peptides at RT for 30 minutes. Following preincubation, the mixture was diluted 10 times, and 10 μl ([…] nest serum) was immediately mixed into reaction wells of pre-chilled 96-well plate, containing assay system (Cardiovascular Targets, Inc., P7700). The microplates were read at 37° C. in SpectraMax 190 (Molecular Devices), for 30 minutes.
Mouse plasma (source of enzyme), obtained from Chow fed mice and from mice fed with high fat cholate containing diet for 4 days, was incubated with PBS or the peptide of SEQ ID Nos: 34, 86, 91 and 96 (0.4, 2, 5, and 10 ug) at RT for 30 min. Reaction was started by addition of 0.3 μl of plasma/PBS or plasma/SEQ ID NO mixture to 100 μl of assay solution containing fluorescent substrate. PLTP activity was monitored on Spectrofluorometer for 20 min at 37° C. Each bar represents the Mean±SEM obtained from 3 independent experiments.

[1] = system: C57BL/6J mice switched on HFC diet; test: Long term effect of peptides on lipoprotein metabolism (7 days pumps, 160 hrs); type: in vivo, mouse; settings: 160 hrs infusion, pumps 1 μl/hr
Experimental: (§1) Effect of time-released peptides on plasma lipoprotein profile—To determine relatively long-term effect of SEQ ID NO: 1 and its derivatives on plasma lipoprotein profile, the Alzet Mini-Osmotic pumps (220 ul), containing various peptides or PBS, were surgically inserted in canulated Chow fed C57BL/6J mice. The pumps with flow rate equal to 8 μl/hr were used for 20 hrs continuous infusion of peptides. The pumps with flow rate equal to 1 μl/hr were used for 160 hrs continuous infusions of peptides. At the end point (20 or 160 hrs after pumps insertion) mice were sacrificed, and blood was drawn by retroorbital puncture and subjected to low speed centrifugation at 4° C. to obtain the plasma. Bile was immediately removed from gall bladders using insulin syringes, and stored on ice until use.
To determine HDL cholesterol, low density lipoproteins were precipitated from plasma using a modified Burstein-Samaille method according to manufacturer's instructions (Boehringer Mannheim 543004), modifying only the ratio of reagent:water from 4:1 to 4:2. Gall bladder derived bile was diluted twice with deionized water, and cholesterol was determined using. Infinity reagents. 3α-Hydroxybile acids were quantified uiising a colorimetric-enzymatic method (Sigma 450).
To monitor cholesterol distribution among the different lipoprotein classes, plasma samples were combined within each group (usually 4-6 mice per group), and subjected to FPLC size-exclusion chromatography on a Superose 6 (HR 10/30 column, Amersham-Pharmacia) using an isocratic 10 mM Tris/150 mM NaCl/1 mM EDTA buffer system at a flow rate of 0.15 ml/min. […] Total and free cholesterol in plasma fractions was determined by using the fluorescent method of W. Gamble, et al. (Gamble et al., 1978, Journal Lipid Res., 16: 1068-1070). 96-well plates were read on Dual-Scanning Microplate Spectrofluorometer Gemini XS (Molecular Devices). The areas under the lipoprotein peaks were quantified by using Unicorn software (Version 3.21.02). The amount of esterified cholesterol was assessed by subtraction of free cholesterol from total cholesterol. […]

[2] = system: C57BL/6J mice switched on HFC diet; test: Effect of time-released peptides on plasma lipoprotein profile (20 hrs pumps); type: in vivo, mouse; settings: for plasma HDL cholesterol levels / plasma levels of HDL phospholipids / plasma levels of low density lipoproteins: 20 hrs continuous infusion, pumps 8 ul/hr; for activity upon infusion into mice for 20 hrs: 20 hrs infusion, FIG. 16
Experimental: as §1
(§2) To monitor cholesterol distribution among the different lipoprotein classes, plasma samples were combined within each group (usually 4-6 mice per group), and subjected to FPLC size-exclusion chromatography on a Superose 6 (HR 10/30 column, Amersham-Pharmacia) using an isocratic 10 mM Tris/150 mM NaCl/1 mM EDTA buffer system at a flow rate of 0.15 ml/min. Fractions (0.15 ml) were collected into 96-well plates containing 0.055 ml of 1:1 mixture of 0.5% Triton X-100 and 20 mM Sodium Cholate. Total and free cholesterol in plasma fractions was determined by using the fluorescent method of W. Gamble, et al. (Gamble et al., 1978, Journal Lipid Res., 16: 1068-1070). 96-well plates were read on Dual-Scanning Microplate Spectrofluorometer Gemini XS (Molecular Devices). The areas under the lipoprotein peaks were quantified by using Unicorn software (Version 3.21.02). The amount of esterified cholesterol was assessed by subtraction of free cholesterol from total cholesterol.
To monitor the distribution of phospholipid among the lipoprotein classes, plasma samples were combined within each group (usually 4-6 mice per group), and subjected to agarose gel electrophoresis, which was carried out using the Paragon system (Beckman Coulter) according to manufacturer's instructions, with following staining with Paragon Lipo Stain (Beckman Coulter 655910). Once dried, the gels were scanned on Personal Densitometer SI (Molecular Dynamics) and bands were quantified using ImageQuant™ software (Verssion 5.2).
Impact of SEQ ID NO: 1 on lipoprotein metabolism (20 hrs pumps)—To determine relatively long-term effect of SEQ ID NO: 1 on plasma lipoprotein profile, the Alzet Mini-Osmotic pumps, containing SEQ ID NO: 1 or PBS, were surgically inserted in canculated Chow fed C57BL/6J mice. The pumps flow rate was equal to 8 ul per hr, which provided the delivery amount of SEQ ID NO: 1 per hr as indicated for FIG. 9. Mice were switched on HFC diet immediately after surgery. 20 hrs later plasma samples were obtained, combined within each group (4 to 6 mice), and subjected to FPLC analysis and agarose gel electrophoresis for assessment of cholesterol and phospholipid distribution among the lipoprotein classes. […] The LDL lowering effect was attenuated with increase of SEQ ID NO: 1 concentration. This phenomenon can be explained by self-competition between free and LDL-bound form of SEQ ID NO: 1 for the liver lipoprotein binding sites. In contrast, HDL cholesterol levels were positively correlated with SEQ ID NO: 1 concentration.
Impact of SEQ ID NO: 1 structural derivatives (3 to 13 amino acid residues) on lipoprotein metabolism (20 hrs pumps)—To determine relatively long-term effect on plasma lipoprotein profile, the Alzet Mini-osmotic pumps, containing SEQ ID NO: 1 derivatives or PBS, were surgically inserted in canulated Chow fed C57BL/6J mice. The pumps flow rate was equal to 8 ul per hr, which provided the deliveries of 30-40 μg of peptides per hr. Mice were switched on HFC diet immediately after surgery. […]

[3] = system: C57BL/6J mice fed a cholate-containing high fat diet (HFC); test: Effect of single bolus injections of peptides on plasma lipoprotein profile; type: in vivo, mouse; settings: single bolus i.v. 100 μg
Experimental: Effect of single bolus injections of peptides on plasma lipoprotein profile—To monitor effect of peptides on plasma cholesterol levels and its distribution among the different lipoprotein classes, the nonradioiodinated free peptides (100 μg in 100 μl of PBS) were injected intravenously into the tail vein of nonfasted C57BL/6J wild type mice, which have been placed on high fat cholate-containing diet four days prior to experiment. To control for the effect of external- and/or internal nonspecific factors (stress of handling, anesthetic, blood drawing) on plasma lipoprotein profile, a similar group of mice was injected with only PBS. Different groups of mice were sacrificed before and at various times after injections and blood was drawn by retroorbital puncture and subjected to low speed centrifugation at 4° C. to obtain the plasma. Plasma samples were obtained, combined within each group (4 mice), and subjected to gel filtration chromatography on a Superose 6 (HR 10/30 column, FPLC) to monitor cholesterol lipoproteins distribution and agarose gel electrophoresis (Paragon Systems) to monitor phospholipid lipoproteins distribution.
as §2
Mice were divided into two groups—control and experimental. Each group contained 4 mice.
Effect of “frame-shift” derived peptides on lipoprotein metabolism (Single bolus injections)—We performed the functional frame-shift of the entire region of mouse apolipoprotein A1 where SEQ ID NO: 1 derived from (helix 6, Pro166-Pro188, precursor protein). Frame-shift was done in both directions (form N-to C- and from C- to N-Terminus). […] Mice were divided into two groups—control and experimental. Each group contained 4 mice. […] The data are expressed as percent of change of total cholesterol (TC) content of VLDL, IDL/LDL, and HDL classes in experimental mice relative to control (PBS injected) mice.
Effect of chemically modified derivatives of SEQ ID NO: 1 and peptides derived from other mouse apoA1 regions on mouse plasma lipoprotein profile (Single bolus injections)—To increase SEQ ID NO: 1 hydrophobicity, Phenyl Acetyl or Pivalic Acid were attached to N-Terminal Tyr residue of SEQ ID NO: 1, or Tyr residue was removed from N-terminus. […] Mice were divided into two groups—control and experimental. Each group contained 4 mice. […] The data are expressed as percent of change of total cholesterol (TC) content of VLDL, IDL/LDL, and HDL classes in experimental mice relative to control (PBS injected) mice.

Substance | effect on PLTP activity (PLTP) | amount of phospholipid in the HDL zone [1] | further results
E-BIP-R (Glu-[Bip]-Arg) [SEQ ID NO: 91] | activation of PLTP | increase | 
EEFRDR [SEQ ID NO: 87] |  |  | plasma HDL cholesterol levels [2]: decrease; plasma levels of HDL phospholipids [2]: decrease; plasma levels of low density lipoproteins [2]: increase
EFR [SEQ ID NO: 34] | activation of PLTP | increase | 
THVDSLRTQLAP (Ac-THVDSLRTQLAP-NH2) [SEQ ID NO: 7] |  |  | impact on plasma HDL-C levels [3]: marked HDL-C elevating properties
dRMRTH ([dD]RMRTH) [SEQ ID NO: 36] | did not have any significant effect |  | activity upon infusion into mice for 20 hrs [2]: did not show significant activity

The next lines start with results.

effect on PLTP activity (PLTP) | Substance | amount of phospholipid in the HDL zone [1] | further results
activation of PLTP | efr ([dE]-[dF]-[dR]) [SEQ ID NO: 96] |  | 
activation of PLTP | erf ([dE]-[dR]-[dF]) [SEQ ID NO: 86] | increase | 
did not have any significant effect | rDRMRTh ([dR]DRMRT[dH]) [SEQ ID NO: 35] |  | plasma HDL cholesterol levels [2]: decrease; plasma levels of HDL phospholipids [2]: decrease; plasma levels of low density lipoproteins [2]: increase; activity upon infusion into mice for 20 hrs [2]: did not show significant activity
